Data as given in the supplement of paper PMC10627819.

Key:
S. pneumoniae D39V [1] = assay: Bliss interaction score (quartile over a dose matrix) (fitness difference); higher = more antagonism (negative = synergy)
How it was run: (§1)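 The Bliss score takes observed fitness and subtracts the expected fitness, calculated as a product of single-drug fitness values. Those single-drug values were inferred from the combination data. Fitness is OD595 at entry into stationary phase divided by the plate's robust no-drug mean, capped at 1, and the score is summarised by quartiles across technical, biological and donor/recipient replicates.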

S. aureus DSM 20231 [2] = assay: as above
How it was run: as §1

B. subtilis 168 [3] = assay: as above
How it was run: as §1

S. aureus Newman [4] = assay: as above
How it was run: as §1

S. pneumoniae D39V [5] = assay: fitness (endpoint OD595 vs no drug) (fraction); higher = more growth
How it was run: (§2)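 Fitness is computed from the optical density at which cultures reach stationary phase, divided by the robust mean of no-drug control wells. Any value above 1 is set to 1. Cultures started at OD595 0.01 in 384-well plates with TSB, LB Lennox or CY at 37 °C, and OD595 was read every 30 min for 14 h against a first-reading background.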

S. aureus DSM 20231 [6] = assay: as above
How it was run: as §2

B. subtilis 168 [7] = assay: as above
How it was run: as §2

S. aureus Newman [8] = assay: as above
How it was run: as §2
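Wherever Bliss interaction score (quartile over a dose matrix) is given: first quartile when negative (synergy) and third quartile when positive (antagonism).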
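Wherever fitness (endpoint OD595 vs no drug) is given: OD595 on entry to stationary phase over no-drug wells; at most 1.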

CO/N=C(\C(=O)N[C@@H]1C(=O)N2C(C(=O)O)=C(COC(C)=O)CS[C@H]12)c1csc(N)n1 [Cefotaxime] + C[n+]1ccc(-c2cc[n+](C)cc2)cc1 [Paraquat]
Conditions | Bliss interaction score
B. subtilis 168 [3] | -0.0771
S. aureus DSM 20231 [2] | -0.0739
S. aureus Newman [4] | -0.0297
S. pneumoniae D39V [1] | -0.0531

fitness
Conditions | partner 1.25 µg/mL | partner 1.5 µg/mL | partner 2.5 µg/mL | partner 3 µg/mL | partner 5 µg/mL | partner 6 µg/mL
B. subtilis 168 [7], first compound 0.5 µg/mL | 0.199 | – | 0.171 | – | 0.166 | –
B. subtilis 168 [7], first compound 1 µg/mL | 0.108 | – | 0.0698 | – | 0.0734 | –
B. subtilis 168 [7], first compound 2 µg/mL | 0.0929 | – | 0.0597 | – | 0.0873 | –
S. aureus DSM 20231 [6], first compound 0.078 µg/mL | 0.762 | – | 0.767 | – | 0.748 | –
S. aureus DSM 20231 [6], first compound 0.156 µg/mL | 0.656 | – | 0.704 | – | 0.703 | –
S. aureus DSM 20231 [6], first compound 0.312 µg/mL | 0.611 | – | 0.664 | – | 0.65 | –
S. aureus Newman [8], first compound 0.078 µg/mL | 0.694 | – | 0.688 | – | 0.702 | –
S. aureus Newman [8], first compound 0.156 µg/mL | 0.521 | – | 0.542 | – | 0.573 | –
S. aureus Newman [8], first compound 0.312 µg/mL | 0.304 | – | 0.314 | – | 0.29 | –
S. pneumoniae D39V [5], first compound 0.0018 µg/mL | – | 0.986 | – | 0.971 | – | 0.957
S. pneumoniae D39V [5], first compound 0.0035 µg/mL | – | 0.992 | – | ≥ 1 | – | 0.962
S. pneumoniae D39V [5], first compound 0.007 µg/mL | – | 0.944 | – | 0.93 | – | 0.843

fitness, one replicate
Conditions | partner 1.25 µg/mL | partner 2.5 µg/mL | partner 5 µg/mL
B. subtilis 168 [7], first compound 0.00775 µg/mL | 0.847 | 0.764 | 0.596
B. subtilis 168 [7], first compound 0.0155 µg/mL | 0.694 | 0.613 | 0.332
B. subtilis 168 [7], first compound 0.031 µg/mL | 0.494 | 0.423 | 0.279
S. aureus DSM 20231 [6], first compound 0.039 µg/mL | 0.729 | 0.775 | 0.767
S. aureus Newman [8], first compound 0.625 µg/mL | 0.0489 | 0.0421 | 0.0459
S. aureus Newman [8], first compound 1.25 µg/mL | 0.0645 | 0.0717 | 0.0769
S. aureus Newman [8], first compound 2.5 µg/mL | 0.0777 | 0.0674 | 0.0627

COc1ccc(C[C@H](N)C(=O)N[C@H]2[C@@H](O)[C@H](n3cnc4c(N(C)C)ncnc43)O[C@@H]2CO)cc1 [Puromycin] + CN(N=O)C(=O)N[C@@H](C=O)[C@@H](O)[C@H](O)[C@H](O)CO [Streptozotocin]
Conditions | Bliss interaction score
B. subtilis 168 [3] | 0.0705
S. aureus DSM 20231 [2] | 0.0762
S. aureus Newman [4] | 0.0523
S. pneumoniae D39V [1] | 0.0919

fitness
Conditions | first compound 0.39 µg/mL | first compound 0.78 µg/mL | first compound 1 µg/mL | first compound 1.56 µg/mL | first compound 2 µg/mL | first compound 4 µg/mL
S. aureus DSM 20231 [6], partner 0.15 µg/mL | 0.894 | 0.887 | – | 0.937 | – | –
S. aureus DSM 20231 [6], partner 0.3 µg/mL | 0.863 | 0.857 | – | 0.812 | – | –
S. aureus DSM 20231 [6], partner 0.6 µg/mL | 0.714 | 0.772 | – | 0.705 | – | –
S. aureus Newman [8], partner 0.15 µg/mL | 0.912 | 0.835 | – | 0.871 | – | –
S. aureus Newman [8], partner 0.3 µg/mL | 0.737 | 0.7 | – | 0.706 | – | –
S. aureus Newman [8], partner 0.6 µg/mL | 0.595 | 0.534 | – | 0.559 | – | –
S. pneumoniae D39V [5], partner 1.2 µg/mL | – | – | 0.913 | – | 0.942 | 0.8
S. pneumoniae D39V [5], partner 2.4 µg/mL | – | – | 0.943 | – | 0.935 | 0.806
S. pneumoniae D39V [5], partner 4.8 µg/mL | – | – | 0.969 | – | 0.926 | 0.749

fitness, one replicate
Conditions | partner 0.15 µg/mL | partner 0.3 µg/mL | partner 0.6 µg/mL
B. subtilis 168 [7], first compound 0.39 µg/mL | 0.999 | 0.978 | ≥ 1
B. subtilis 168 [7], first compound 0.78 µg/mL | ≥ 1 | ≥ 1 | 0.981
B. subtilis 168 [7], first compound 1.56 µg/mL | ≥ 1 | 0.925 | 0.938
S. aureus DSM 20231 [6], first compound 3.12 µg/mL | 0.907 | 0.853 | 0.806
S. aureus DSM 20231 [6], first compound 6.24 µg/mL | 0.706 | 0.6 | 0.549

CO/N=C(\C(=O)N[C@@H]1C(=O)N2C(C(=O)O)=C(COC(C)=O)CS[C@H]12)c1csc(N)n1 [Cefotaxime] + Cc1cc(NS(=O)(=O)c2ccc(N)cc2)no1 [Sulfamethoxazol]
Conditions | Bliss interaction score
B. subtilis 168 [3] | 0.054
S. aureus DSM 20231 [2] | 0.046
S. aureus Newman [4] | 0.0672
S. pneumoniae D39V [1] | 0.0301

fitness
Conditions | partner 1 µg/mL | partner 2 µg/mL | partner 4 µg/mL
B. subtilis 168 [7], first compound 0.5 µg/mL | 0.221 | 0.187 | 0.211
B. subtilis 168 [7], first compound 1 µg/mL | 0.115 | 0.0739 | 0.0877
B. subtilis 168 [7], first compound 2 µg/mL | 0.11 | 0.0944 | 0.0802
S. aureus DSM 20231 [6], first compound 0.078 µg/mL | 0.737 | 0.735 | 0.74
S. aureus DSM 20231 [6], first compound 0.156 µg/mL | 0.681 | 0.686 | 0.687
S. aureus DSM 20231 [6], first compound 0.312 µg/mL | 0.619 | 0.605 | 0.631
S. aureus Newman [8], first compound 0.039 µg/mL | – | 0.944 | 0.886
S. aureus Newman [8], first compound 0.078 µg/mL | 0.776 | 0.821 | 0.833
S. aureus Newman [8], first compound 0.156 µg/mL | 0.687 | 0.752 | 0.748
S. aureus Newman [8], first compound 0.312 µg/mL | 0.408 | 0.535 | 0.547
S. pneumoniae D39V [5], first compound 0.0018 µg/mL | 0.945 | 0.969 | 0.913
S. pneumoniae D39V [5], first compound 0.0035 µg/mL | 0.984 | 0.955 | 0.943
S. pneumoniae D39V [5], first compound 0.007 µg/mL | 0.894 | 0.91 | 0.888

fitness, one replicate
Conditions | partner 0.5 µg/mL | partner 1 µg/mL | partner 2 µg/mL | partner 4 µg/mL | partner 8 µg/mL
B. subtilis 168 [7], first compound 0.00775 µg/mL | – | 0.802 | 0.77 | 0.757 | –
B. subtilis 168 [7], first compound 0.0155 µg/mL | – | 0.719 | 0.638 | 0.6 | –
B. subtilis 168 [7], first compound 0.031 µg/mL | – | 0.552 | 0.513 | 0.475 | –
B. subtilis 168 [7], first compound 0.0625 µg/mL | 0.664 | 0.494 | 0.438 | – | –
B. subtilis 168 [7], first compound 0.125 µg/mL | 0.395 | 0.402 | 0.275 | – | –
B. subtilis 168 [7], first compound 0.25 µg/mL | 0.325 | 0.0239 | 0.201 | – | –
S. aureus DSM 20231 [6], first compound 0.039 µg/mL | – | 0.724 | 0.758 | 0.714 | –
S. aureus Newman [8], first compound 0.039 µg/mL | – | 0.86 | – | – | 0.922
S. aureus Newman [8], first compound 0.078 µg/mL | – | – | – | – | 0.877
S. aureus Newman [8], first compound 0.156 µg/mL | – | – | – | – | 0.823
S. aureus Newman [8], first compound 0.312 µg/mL | – | – | – | – | 0.588
S. aureus Newman [8], first compound 0.625 µg/mL | – | 0.0508 | 0.0123 | 0.0053 | –
S. aureus Newman [8], first compound 1.25 µg/mL | – | 0.0193 | 0.0269 | 0.0043 | –
S. aureus Newman [8], first compound 2.5 µg/mL | – | 0.0252 | 0.0046 | 0.0076 | –
